Assay results reported in PMC5218480 (PLoS ONE, 2017).

Test system: MV-4-11 cells
Assay: Gene expression microarray analysis (Affymetrix PrimeView) and GSEA
Format: cell-based, human
Parameters: RFU PODN (11730768_x_at) / Fold change /veh PODN (11730768_x_at) / RFU LINC00158 (11744669_a_at) / Fold change /veh LINC00158 (11744669_a_at) / RFU DUSP10 (11751237_a_at) / Fold change /veh DUSP10 (11751237_a_at) / RFU ID3 (11757404_x_at) / Fold change /veh ID3 (11757404_x_at) / RFU PLEKHG5 (11737974_s_at) / Fold change /veh PLEKHG5 (11737974_s_at) / RFU LRRC4B (11730491_at) / Fold change /veh LRRC4B (11730491_at) / RFU GIMAP4 (11747438_a_at) / Fold change /veh GIMAP4 (11747438_a_at) / RFU KRT8 (11758183_x_at) / Fold change /veh KRT8 (11758183_x_at) / RFU CNN1 (11734310_a_at) / Fold change /veh CNN1 (11734310_a_at) / RFU VPS37D (11726825_at) / Fold change /veh VPS37D (11726825_at) / RFU C10orf10 (11716522_x_at) / Fold change /veh C10orf10 (11716522_x_at) / RFU KIR2DL2 /// KIR2DL4 /// KIR2DL5A /// KIR2DL5B /// KIR2DS1 /// KIR2DS2 /// KIR2DS3 /// KIR2DS4 /// KIR3DL3 /// KIR3DL3 /// KIR3DS1 (11738374_at) / Fold change /veh KIR2DL2 /// KIR2DL4 /// KIR2DL5A /// KIR2DL5B /// KIR2DS1 /// KIR2DS2 /// KIR2DS3 /// KIR2DS4 /// KIR3DL3 /// KIR3DL3 /// KIR3DS1 (11738374_at) / RFU C1QL1 (11718748_at) / Fold change /veh C1QL1 (11718748_at) / RFU TMPRSS4 (11747572_a_at) / Fold change /veh TMPRSS4 (11747572_a_at) / RFU HAMP (11756126_x_at) / Fold change /veh HAMP (11756126_x_at) / RFU RNFT2 (11725882_a_at) / Fold change /veh RNFT2 (11725882_a_at) / RFU NR4A2 (11747474_a_at) / Fold change /veh NR4A2 (11747474_a_at) / RFU ABCC12 (11746883_a_at) / Fold change /veh ABCC12 (11746883_a_at) / RFU TMEM136 (11760407_x_at) / Fold change /veh TMEM136 (11760407_x_at) / RFU CLDN22 /// WWC2 (11732394_at) / Fold change /veh CLDN22 /// WWC2 (11732394_at) / RFU HLA-DPB1 (11760878_x_at) / Fold change /veh HLA-DPB1 (11760878_x_at) / RFU SPINT1 (11716480_a_at) / Fold change /veh SPINT1 (11716480_a_at) / RFU GAP43 (11754022_s_at) / Fold change /veh GAP43 (11754022_s_at) / RFU A4GNT (11735810_at) / Fold change /veh A4GNT (11735810_at) / RFU PRB3 (11715151_x_at) / Fold change /veh PRB3 (11715151_x_at) / RFU TUBB4B (11761932_at) / Fold change /veh TUBB4B (11761932_at) / RFU CAPN14 (11732068_a_at) / Fold change /veh CAPN14 (11732068_a_at) / RFU TMCC2 (11721928_a_at) / Fold change /veh TMCC2 (11721928_a_at) / RFU IRGQ (11745062_a_at) / Fold change /veh IRGQ (11745062_a_at) / RFU FAM174B (11720279_a_at) / Fold change /veh FAM174B (11720279_a_at) / RFU TMPRSS4 (11748680_a_at) / Fold change /veh TMPRSS4 (11748680_a_at) / RFU FAM212B (11763350_a_at) / Fold change /veh FAM212B (11763350_a_at) / RFU PLEKHG5 (11743358_a_at) / Fold change /veh PLEKHG5 (11743358_a_at) / RFU ZSCAN30 (11745921_a_at) / Fold change /veh ZSCAN30 (11745921_a_at) / RFU CMKLR1 (11741424_a_at) / Fold change /veh CMKLR1 (11741424_a_at) / RFU LOC101060620 /// MAPK8IP1 (11723275_at) / Fold change /veh LOC101060620 /// MAPK8IP1 (11723275_at) / RFU SPTSSB (11747773_x_at) / Fold change /veh SPTSSB (11747773_x_at) / RFU PRSS12 (11739890_at) / Fold change /veh PRSS12 (11739890_at) / RFU BIN1 (11741810_x_at) / Fold change /veh BIN1 (11741810_x_at) / RFU WNT11 (11732464_a_at) / Fold change /veh WNT11 (11732464_a_at) / RFU C10orf10 (11716521_a_at) / Fold change /veh C10orf10 (11716521_a_at) / RFU C5orf56 (11738089_at) / Fold change /veh C5orf56 (11738089_at) / RFU CYB561 (11721691_x_at) / Fold change /veh CYB561 (11721691_x_at) / RFU ANKRD19P (11752326_a_at) / Fold change /veh ANKRD19P (11752326_a_at) / RFU OR2T12 /// OR2T33 /// OR2T8 (11738714_s_at) / Fold change /veh OR2T12 /// OR2T33 /// OR2T8 (11738714_s_at) / RFU VCAN (11748164_a_at) / Fold change /veh VCAN (11748164_a_at) / RFU JSRP1 (11732532_at) / Fold change /veh JSRP1 (11732532_at) / RFU KRTAP10-11 (11738290_x_at) / Fold change /veh KRTAP10-11 (11738290_x_at) / RFU MYO3A (11730013_a_at) / Fold change /veh MYO3A (11730013_a_at) / RFU EBF3 (11725865_a_at) / Fold change /veh EBF3 (11725865_a_at) / RFU CAMK2N1 (11719241_x_at) / Fold change /veh CAMK2N1 (11719241_x_at) / RFU C5orf56 (11738088_a_at) / Fold change /veh C5orf56 (11738088_a_at) / RFU OLFML3 (11715873_a_at) / Fold change /veh OLFML3 (11715873_a_at) / RFU LOC100653217 /// NTM (11731650_a_at) / Fold change /veh LOC100653217 /// NTM (11731650_a_at) / RFU MAPK11 (11762145_a_at) / Fold change /veh MAPK11 (11762145_a_at) / RFU FIZ1 (11724087_x_at) / Fold change /veh FIZ1 (11724087_x_at) / RFU OASL (11726364_x_at) / Fold change /veh OASL (11726364_x_at) / RFU SOX15 (11748057_x_at) / Fold change /veh SOX15 (11748057_x_at) / RFU CD79A (11719716_a_at) / Fold change /veh CD79A (11719716_a_at) / RFU HIST1H1D (11736915_at) / Fold change /veh HIST1H1D (11736915_at) / RFU CASKIN2 (11723855_a_at) / Fold change /veh CASKIN2 (11723855_a_at) / RFU LOC730098 (11760151_x_at) / Fold change /veh LOC730098 (11760151_x_at) / RFU OR4N2 (11742367_at) / Fold change /veh OR4N2 (11742367_at) / RFU PRRT2 (11749266_a_at) / Fold change /veh PRRT2 (11749266_a_at) / RFU SNX32 (11753110_a_at) / Fold change /veh SNX32 (11753110_a_at) / RFU CDHR5 (11726645_a_at) / Fold change /veh CDHR5 (11726645_a_at) / RFU RCAN1 (11760418_a_at) / Fold change /veh RCAN1 (11760418_a_at) / RFU FAM167A (11723789_a_at) / Fold change /veh FAM167A (11723789_a_at) / RFU FAM26E (11764081_at) / Fold change /veh FAM26E (11764081_at) / RFU ISYNA1 (11749810_s_at) / Fold change /veh ISYNA1 (11749810_s_at) / RFU ACY1 (11761880_at) / Fold change /veh ACY1 (11761880_at) / RFU 11764098_at / Fold change /veh 11764098_at / RFU SAMD14 (11745864_x_at) / Fold change /veh SAMD14 (11745864_x_at) / RFU NPB (11741838_a_at) / Fold change /veh NPB (11741838_a_at) / RFU TMPRSS6 (11731388_a_at) / Fold change /veh TMPRSS6 (11731388_a_at) / RFU KRTAP10-2 (11738614_at) / Fold change /veh KRTAP10-2 (11738614_at) / RFU ARHGAP8 /// PRR5-ARHGAP8 (11727945_x_at) / Fold change /veh ARHGAP8 /// PRR5-ARHGAP8 (11727945_x_at) / RFU KRTAP5-7 /// NADSYN1 (11734609_at) / Fold change /veh KRTAP5-7 /// NADSYN1 (11734609_at) / RFU RASL12 (11751679_a_at) / Fold change /veh RASL12 (11751679_a_at) / RFU CDKN2B (11736163_a_at) / Fold change /veh CDKN2B (11736163_a_at) / RFU PRF1 (11729649_at) / Fold change /veh PRF1 (11729649_at) / RFU, ZNF638 /// ZNF638-IT1 / Fold change vs veh, ZNF638 /// ZNF638-IT1 / RFU, PANK3 / Fold change vs veh, PANK3 / RFU, SH3YL1 / Fold change vs veh, SH3YL1 / RFU, ZEB2 / Fold change vs veh, ZEB2 / RFU, NRIP1 / Fold change vs veh, NRIP1 / RFU, PTTG1IP / Fold change vs veh, PTTG1IP / RFU, CAPN2 / Fold change vs veh, CAPN2 / RFU, MED14 / Fold change vs veh, MED14 / RFU, SNORA58 / Fold change vs veh, SNORA58 / RFU, C1orf63 / Fold change vs veh, C1orf63 / RFU, LRRFIP1 / Fold change vs veh, LRRFIP1 / RFU, NDUFAF7 / Fold change vs veh, NDUFAF7 / RFU, SLC12A2 / Fold change vs veh, SLC12A2 / RFU, IBTK / Fold change vs veh, IBTK / RFU, ESF1 / Fold change vs veh, ESF1 / Fold change vs veh, TMEM50B / RFU, TAOK1 / Fold change vs veh, TAOK1 / RFU, ACBD3 / Fold change vs veh, ACBD3 / RFU, TMA16 / Fold change vs veh, TMA16 / RFU, RWDD3 / Fold change vs veh, RWDD3 / RFU, BCAT1 / Fold change vs veh, BCAT1 / RFU, EDEM3 / Fold change vs veh, EDEM3 / RFU, TMEM33 / Fold change vs veh, TMEM33 / RFU, WDR75 / Fold change vs veh, WDR75 / RFU, AHCTF1 / Fold change vs veh, AHCTF1 / RFU, TFRC / Fold change vs veh, TFRC / RFU, ZDHHC17 / Fold change vs veh, ZDHHC17 / RFU, NOM1 / Fold change vs veh, NOM1 / RFU, ARL8B / Fold change vs veh, ARL8B / RFU, ZBTB11 / Fold change vs veh, ZBTB11 / RFU, TAMM41 / Fold change vs veh, TAMM41 / RFU, KIAA1704 /// LOC100996395 / Fold change vs veh, KIAA1704 /// LOC100996395 / RFU, ING1 / Fold change vs veh, ING1 / RFU, TRMT61B / Fold change vs veh, TRMT61B / RFU, FUBP3 / Fold change vs veh, FUBP3 / RFU, TP53 / Fold change vs veh, TP53 / RFU, TNKS2 / Fold change vs veh, TNKS2 / RFU, ZFP14 / Fold change vs veh, ZFP14 / RFU, ACTR2 / Fold change vs veh, ACTR2 / RFU, PPP3R1 / Fold change vs veh, PPP3R1 / RFU, PIK3R1 / Fold change vs veh, PIK3R1 / RFU, HNRNPA1 / Fold change vs veh, HNRNPA1 / RFU, RNF170 / Fold change vs veh, RNF170 / RFU, ZNF28 / Fold change vs veh, ZNF28 / RFU, RNGTT / Fold change vs veh, RNGTT / RFU, OGT / Fold change vs veh, OGT / RFU, BRD1 / Fold change vs veh, BRD1 / RFU, MARS / Fold change vs veh, MARS / RFU, ZNF655 / Fold change vs veh, ZNF655 / RFU, FAHD1 / Fold change vs veh, FAHD1 / RFU, BDP1 / Fold change vs veh, BDP1 / RFU, LRRCC1 / Fold change vs veh, LRRCC1 / RFU, ARID1A / Fold change vs veh, ARID1A / RFU, ZNF146 / Fold change vs veh, ZNF146 / RFU, ZNF330 / Fold change vs veh, ZNF330 / RFU, GPN3 / Fold change vs veh, GPN3 / RFU, C9orf123 / Fold change vs veh, C9orf123 / RFU, N4BP2L2 / Fold change vs veh, N4BP2L2 / RFU, ARFIP1 / Fold change vs veh, ARFIP1 / RFU, FAM179B / Fold change vs veh, FAM179B / RFU, BCL10 / Fold change vs veh, BCL10 / RFU, UHRF1BP1L / Fold change vs veh, UHRF1BP1L / RFU, BET1 / Fold change vs veh, BET1 / RFU, CNOT2 / Fold change vs veh, CNOT2 / RFU, ZNF268 / Fold change vs veh, ZNF268 / Fold change vs veh, ZNF507 / RFU, DGCR2 / Fold change vs veh, DGCR2 / RFU, WDSUB1 / Fold change vs veh, WDSUB1 / Fold change vs veh, HSP90B1 /// MIR3652 / RFU, ADSS / Fold change vs veh, ADSS / RFU, GK / Fold change vs veh, GK / RFU, ZNF148 / Fold change vs veh, ZNF148 / RFU, TAF9 / Fold change vs veh, TAF9 / RFU, SLC1A5 / Fold change vs veh, SLC1A5 / RFU, SLMO2 / Fold change vs veh, SLMO2 / RFU, ABCC4 / Fold change vs veh, ABCC4 / RFU, LOC101060439 /// RAP1B / Fold change vs veh, LOC101060439 /// RAP1B / RFU, RFX7 / Fold change vs veh, RFX7 / RFU, GTPBP10 / Fold change vs veh, GTPBP10 / RFU, CNEP1R1 / Fold change vs veh, CNEP1R1 / RFU, BIVM-ERCC5 /// ERCC5 / Fold change vs veh, BIVM-ERCC5 /// ERCC5 / RFU, ILF3 / Fold change vs veh, ILF3 / RFU 11762660_at / Fold change /veh 11762660_at / RFU VCAN (11757783_s_at) / Fold change /veh VCAN (11757783_s_at) / RFU DDX43 (11728927_at) / Fold change /veh DDX43 (11728927_at) / RFU KRT8 (11758188_x_at) / Fold change /veh KRT8 (11758188_x_at) / RFU NKD1 (11759106_at) / Fold change /veh NKD1 (11759106_at) / RFU SRD5A1 (11742802_a_at) / Fold change /veh SRD5A1 (11742802_a_at) / RFU TPSAB1 /// TPSB2 (11721975_s_at) / Fold change /veh TPSAB1 /// TPSB2 (11721975_s_at) / RFU GSTM3 (11746129_a_at) / Fold change /veh GSTM3 (11746129_a_at) / RFU IL23R (11737362_x_at) / Fold change /veh IL23R (11737362_x_at) / RFU TMEM51 (11727254_a_at) / Fold change /veh TMEM51 (11727254_a_at) / RFU PIWIL2 (11732686_x_at) / Fold change /veh PIWIL2 (11732686_x_at) / RFU ORM1 (11744905_x_at) / Fold change /veh ORM1 (11744905_x_at) / RFU CCDC152 (11743942_at) / Fold change /veh CCDC152 (11743942_at) / RFU ECM1 (11717891_a_at) / Fold change /veh ECM1 (11717891_a_at) / RFU IL23R (11748794_a_at) / Fold change /veh IL23R (11748794_a_at) / RFU TNFAIP8L3 (11732012_x_at) / Fold change /veh TNFAIP8L3 (11732012_x_at) / RFU MBOAT4 (11741988_at) / Fold change /veh MBOAT4 (11741988_at) / RFU 11764193_at / Fold change /veh 11764193_at / RFU TMEM53 (11763286_at) / Fold change /veh TMEM53 (11763286_at) / RFU MAGEB2 (11727129_at) / Fold change /veh MAGEB2 (11727129_at) / RFU TMEM200A (11744735_a_at) / Fold change /veh TMEM200A (11744735_a_at) / RFU CCDC152 (11751479_a_at) / Fold change /veh CCDC152 (11751479_a_at) / RFU FAM211A (11726209_a_at) / Fold change /veh FAM211A (11726209_a_at) / RFU RGS16 (11746705_a_at) / Fold change /veh RGS16 (11746705_a_at) / RFU VCAN (11755009_s_at) / Fold change /veh VCAN (11755009_s_at) / RFU RHOB (11743442_s_at) / Fold change /veh RHOB (11743442_s_at) / RFU RGS16 (11720943_a_at) / Fold change /veh RGS16 (11720943_a_at) / RFU RGS16 (11720944_at) / Fold change /veh RGS16 (11720944_at) / RFU, VPS4B / Fold change vs veh, VPS4B / RFU, CREB1 / Fold change vs veh, CREB1 / RFU, DNAJC13 / Fold change vs veh, DNAJC13 / RFU, GNAQ / Fold change vs veh, GNAQ / RFU, CDK5R1 / Fold change vs veh, CDK5R1 / RFU, ZRANB3 / Fold change vs veh, ZRANB3 / RFU, CUL4A / Fold change vs veh, CUL4A / RFU, CCNY / Fold change vs veh, CCNY / RFU, UFL1 / Fold change vs veh, UFL1 / RFU, COG3 / Fold change vs veh, COG3 / RFU, DIAPH2 / Fold change vs veh, DIAPH2 / RFU, SKA2 / Fold change vs veh, SKA2 / RFU, AFF3 / Fold change vs veh, AFF3 / RFU, LMF1 / Fold change vs veh, LMF1 / RFU, IPO11 / Fold change vs veh, IPO11 / RFU, DFFB / Fold change vs veh, DFFB / RFU, FOXP1 / Fold change vs veh, FOXP1 / RFU, CARD8 / Fold change vs veh, CARD8 / RFU, STRN3 / Fold change vs veh, STRN3 / RFU, ADK / Fold change vs veh, ADK / RFU, RASSF2 / Fold change vs veh, RASSF2 / RFU, WIPF1 / Fold change vs veh, WIPF1 / RFU, LARP1B / Fold change vs veh, LARP1B / RFU, RASA1 / Fold change vs veh, RASA1 / RFU, RB1 / Fold change vs veh, RB1 / RFU, PPFIA1 / Fold change vs veh, PPFIA1 / RFU, MAT2A / Fold change vs veh, MAT2A / RFU, CCT5 / Fold change vs veh, CCT5 / RFU, WDR92 / Fold change vs veh, WDR92 / RFU, CUX1 / Fold change vs veh, CUX1 / RFU, TTC7A / Fold change vs veh, TTC7A / RFU, TMEM135 / Fold change vs veh, TMEM135 / RFU, DEPTOR / Fold change vs veh, DEPTOR / RFU, CPM / Fold change vs veh, CPM / RFU, DNAJB6 / Fold change vs veh, DNAJB6 / RFU, CACNA2D3 / Fold change vs veh, CACNA2D3 / RFU, DTX4 / Fold change vs veh, DTX4 / RFU, TFCP2 / Fold change vs veh, TFCP2 / RFU, GMCL1 /// GMCL1P1 / Fold change vs veh, GMCL1 /// GMCL1P1 / RFU, AEBP2 / Fold change vs veh, AEBP2 / RFU, SNHG1 /// SNORD22 /// SNORD25 /// SNORD26 /// SNORD27 /// SNORD28 /// SNORD29 /// SNORD31 / Fold change vs veh, SNHG1 /// SNORD22 /// SNORD25 /// SNORD26 /// SNORD27 /// SNORD28 /// SNORD29 /// SNORD31 / Fold change (Aza/veh), C12orf56 (ProbeSet 11735607_a_at) / Fold change (ACY-1035/veh), C12orf56 (ProbeSet 11735607_a_at) / Fold change (Aza/veh), FGFR1OP (ProbeSet 11751329_s_at) / Fold change (ACY-1035/veh), FGFR1OP (ProbeSet 11751329_s_at) / Fold change (Aza/veh), VPS36 (ProbeSet 11739960_a_at) / Fold change (ACY-1035/veh), VPS36 (ProbeSet 11739960_a_at) / RFU SYPL1 (11715823_x_at) / Fold change /veh SYPL1 (11715823_x_at) / RFU IGFBP7 (11715501_s_at) / Fold change /veh IGFBP7 (11715501_s_at) / RFU REEP3 (11722064_at) / Fold change /veh REEP3 (11722064_at) / RFU IGLL1 (11728026_x_at) / Fold change /veh IGLL1 (11728026_x_at): dose or concentration left out as unconfirmed
Conditions: ProbeSet 11747888_a_at; LIST D

## Nc1ccc(-c2cccs2)cc1NC(=O)c1ccc2c(c1)cc(C1CC1)n2CCN1CCOCC1 [ACY-1035]
  Fold change vs veh, SH3YL1: 0.93
